Results published in PubChem BioAssay (NCI).
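In this assay, cells in 96-well plates receive the compound at five concentrations for 48 hours. Endpoints are linearly interpolated between the surrounding concentrations. Abbreviation: GI50, concentration required for 50% inhibition of growth. At the TGI there is no net growth.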

Experiments:
Test in all cases: NCI tumour cell line growth inhibition, 48 h
[1] = tested on: MDA-MB-231 breast
[2] = tested on: ACHN renal
[3] = tested on: SF-295 CNS
[4] = tested on: OVCAR-3 ovarian
[5] = tested on: SN12C renal
[6] = tested on: HS 578T breast
[7] = tested on: MOLT-4 leukemia
[8] = tested on: SK-MEL-28 melanoma
[9] = tested on: 786-0 renal
[10] = tested on: UO-31 renal
[11] = tested on: SK-MEL-2 melanoma
[12] = tested on: BT-549 breast
[13] = tested on: CAKI-1 renal
[14] = tested on: SF-539 CNS
[15] = tested on: LOX IMVI melanoma
[16] = tested on: MCF7 breast
[17] = tested on: DU-145 prostate
[18] = tested on: SNB-75 CNS
[19] = tested on: HL-60(TB) leukemia
[20] = tested on: UACC-257 melanoma
[21] = tested on: COLO 205 colon
[22] = tested on: EKVX NSCLC
[23] = tested on: RXF 393 renal
[24] = tested on: SF-268 CNS
[25] = tested on: OVCAR-4 ovarian
[26] = tested on: SK-MEL-5 melanoma
[27] = tested on: HOP-62 NSCLC
[28] = tested on: HCT-116 colon
[29] = tested on: K-562 leukemia
[30] = tested on: NCI-H23 lung
[31] = tested on: U251 CNS
[32] = tested on: A549 NSCLC
[33] = tested on: HCT-15 colon
[34] = tested on: A498 renal
[35] = tested on: HCC-2998 colon
[36] = tested on: SW-620 colon
[37] = tested on: HT29 colon
[38] = tested on: HOP-92 NSCLC
[39] = tested on: KM12 colon
[40] = tested on: IGROV1 ovarian
[41] = tested on: UACC-62 melanoma
[42] = tested on: SNB-19 CNS
[43] = tested on: MDA-MB-435
[44] = tested on: TK-10 renal
[45] = tested on: MALME-3M melanoma
[46] = tested on: NCI/ADR-RES ovarian
[47] = tested on: T-47D breast
[48] = tested on: SR leukemia
[49] = tested on: SK-OV-3 ovarian
[50] = tested on: OVCAR-8 ovarian
[51] = tested on: CCRF-CEM leukemia
[52] = tested on: PC-3 prostate
[53] = tested on: NCI-H226 lung
[54] = tested on: OVCAR-5 ovarian
[55] = tested on: NCI-H460 lung

Work on CN(C)S(=O)(=O)c1ccc(-c2nc(C(Cl)Cl)nc3cc(-c4ccc(F)cc4)nn23)cc1 yielded a GI50 [1] of 1750 nM, a TGI [1] of 6.28 µM and a GI50 [2] of 925 nM. The TGI [2] was 3.61 µM, the GI50 [3] was 1770 nM and the TGI [3] was 6.66 µM. The GI50 [4] was 1670 nM, the TGI [4] was 4.01 µM and the GI50 [5] was 2180 nM. It also gave a TGI [5] of 27.7 µM, a GI50 [6] of 2630 nM and a TGI [6] of 7.33 µM. It also gave a GI50 [7] of 888 nM, a TGI [7] of over 100 µM and a GI50 [8] of 2010 nM. The TGI [8] was 5.4 µM, the GI50 [9] was 9.42 µM and the TGI [9] was over 100 µM. For the same molecule, the GI50 [10] was 2140 nM, the TGI [10] was 7.26 µM and the GI50 [11] was 2890 nM. It also gave a TGI [11] of 9.35 µM, a GI50 [12] of 2290 nM and a TGI [12] of 9.99 µM. It also gave a GI50 [13] of 1530 nM, a TGI [13] of 4.71 µM and a GI50 [14] of 2150 nM. It also gave a TGI [14] of 7.55 µM, a GI50 [15] of 1150 nM and a TGI [15] of 6.36 µM. The GI50 [16] was 2460 nM, the TGI [16] was over 100 µM and the GI50 [17] was 1590 nM. It also gave a TGI [17] of 6.27 µM, a GI50 [18] of 5.37 µM and a TGI [18] of 56.4 µM. For the same molecule, the GI50 [19] was 1300 nM, the TGI [19] was over 100 µM and the GI50 [20] was 3.15 µM. For the same molecule, the TGI [20] was 16.6 µM, the GI50 [21] was 1620 nM and the TGI [21] was 4.23 µM. The GI50 [22] was 1940 nM, the TGI [22] was 5 µM and the GI50 [23] was 1400 nM. The TGI [23] was 3.87 µM, the GI50 [24] was 2580 nM and the TGI [24] was 11.1 µM. It also gave a GI50 [25] of 2400 nM, a TGI [25] of 8.14 µM and a GI50 [26] of 1970 nM. For the same molecule, the TGI [26] was 4.22 µM, the GI50 [27] was 2080 nM and the TGI [27] was 8.37 µM. The GI50 [28] was 986 nM, the TGI [28] was 3.22 µM and the GI50 [29] was 929 nM. For the same molecule, the TGI [29] was over 100 µM, the GI50 [30] was 1450 nM and the TGI [30] was 3.4 µM. It also gave a GI50 [31] of 1050 nM, a TGI [31] of 2980 nM and a GI50 [32] of 1880 nM. For the same molecule, the TGI [32] was 5.7 µM, the GI50 [33] was 1130 nM and the TGI [33] was 5.08 µM. The GI50 [34] was 1760 nM, the TGI [34] was 8.32 µM and the GI50 [35] was 1430 nM. The TGI [35] was 2920 nM, the GI50 [36] was 891 nM and the TGI [36] was 3.31 µM. It also gave a GI50 [37] of 494 nM, a TGI [37] of 2150 nM and a GI50 [38] of 1790 nM. The TGI [38] was 5.75 µM, the GI50 [39] was 1560 nM and the TGI [39] was 4.88 µM. For the same molecule, the GI50 [40] was 1440 nM, the TGI [40] was 4.65 µM and the GI50 [41] was 1300 nM. The TGI [41] was 2940 nM, the GI50 [42] was 2280 nM and the TGI [42] was 10.9 µM. The GI50 [43] was 1320 nM, the TGI [43] was 3.12 µM and the GI50 [44] was 3.11 µM. It also gave a TGI [44] of 13.1 µM, a GI50 [45] of 1860 nM and a TGI [45] of 4.05 µM. For the same molecule, the GI50 [46] was 1010 nM, the TGI [46] was 4.66 µM and the GI50 [47] was 3.7 µM. The TGI [47] was 56.9 µM, the GI50 [48] was 320 nM and the TGI [48] was over 100 µM. It also gave a GI50 [49] of 2150 nM, a TGI [49] of 7.79 µM and a GI50 [50] of 1740 nM. For the same molecule, the TGI [50] was 7.58 µM, the GI50 [51] was 1870 nM and the TGI [51] was over 100 µM. The GI50 [52] was 2250 nM, the TGI [52] was 8.56 µM and the GI50 [53] was 2770 nM. It also gave a TGI [53] of 25.6 µM, a GI50 [54] of 2230 nM and a TGI [54] of 7.89 µM. The GI50 [55] was 1680 nM and the TGI [55] was 4.32 µM.
